According to patent US20190345443A1, “METHOD FOR THE CULTURING AND DIFFERENTIATION OF CELLS” (FRAUNHOFER-GESELLSCHAFT ZUR FORDERUNG DER ANGEWANDTEN …, priority 2018, published 2019):

Tested on: MDA-MB-231 breast cancer cells
Assay: Overhead culture of MDA-MB-231 breast cancer cells with paclitaxel, relative cell count
Type: cell-based
Conditions: 500 nM paclitaxel, 48 h overhead culture
Method: In the present experiment, MDA-MB-231 breast cancer cells were initially seeded on cell culture substrates according to the present invention, in particular nanoporous glass membranes with average pore diameters of 17 nm, 26 nm, 46 nm, 81 nm, and 124 nm, and on a smooth non-porous glass surface and cultured for 24 h in order to obtain homogeneous cell colonization on all substrates. Subsequently, the samples were inverted and divided into two groups: one control group and one test group, wherein the culturing took place in overhead culture for 48 h. In this context, the control group was cultured in normal culture medium and 500 nM paclitaxel was added to the culture medium of the test group. During culturing for 48 h in overhead culture, a reduction of the relative cell count on the substrates according to the invention by approximately 35-55% in the test group as compared to the control group was observed (FIG. 7).

CC(=O)O[C@H]1C(=O)[C@@]2(C)[C@H]([C@H](OC(=O)c3ccccc3)[C@]3(O)C[C@H](OC(=O)[C@H](O)[C@@H](NC(=O)c4ccccc4)c4ccccc4)C(C)=C1C3(C)C)[C@]1(OC(C)=O)CO[C@@H]1C[C@@H]2O [paclitaxel]
reduction of the relative cell count in the test group as compared to the control group (on nanoporous glass membranes (17, 26, 46, 81, 124 nm)): 35-55%
reduction of the relative cell count in the test group as compared to the control group (on smooth non-porous glass surface): approximately 5%
